In US12589090B2, “Compounds and methods for the treatment of degenerative disorders” (Aquilus Pharmaceuticals, Inc., priority 2019, dated 2026):

Assays:
[1] = In-vivo oral rat pharmacokinetics (Example 15); conditions: male Sprague-Dawley rats, dose level 10 mg/kg, 0.5% MC, plasma, mean
Description: Understanding the pharmacokinetics in species typically employed in preclinical animal testing is an essential component of drug discovery. […] Procedure: Six (6) male Sprague-Dawley rats were used. Fasting was conducted at least 16 hours prior to dose administration. Food was returned at approximately 4 hours post dose. The animals were placed into 2 groups of 3 animals per group. The oral (PO) formulation for Groups 1 & 2 were prepared on the day of dosing at a target concentration of 0.5 mg/mL in 0.5% Methylcellulose (400 cps) to produce a white, homogeneous suspension. Dosing was performed as outlined in Table 1:
Whole blood samples (0.250 mL; K2EDTA anticoagulant) were collected from each animal through a jugular vein catheter. Whole blood samples were collected from all animals pre-dose, and at 0.25, 0.5, 1, 2, 4, 8, 16, and 24 hours after dose administration. All blood samples were immediately placed on ice until processing. Whole blood samples were centrifuged at 2200×g for 10 minutes in a refrigerated centrifuge (5±3° C.) to isolate plasma. The plasma samples were transferred to individual polypropylene vials and immediately placed on dry ice before storage at nominally −20±5° C. The plasma samples sometime later were then thawed and extracted and analyzed by high pressure liquid chromatography (HPLC) coupled to Mass Spectrometry (MS) (Table 2). Pharmacokinetic parameters (Table 3) were estimated using WinNonlin® pharmacokinetic software (Version No. 5.2.1) using a non-compartmental approach consistent with the PO route of administration.

[2] = test system: STZ-induced diabetic rats; assay: STZ-induced diabetic rat model, blood glucose concentration and HbA1c (Example 18); format: in vivo, Wistar rats
Description: (§1) Male Wistar rats (300-350 g) at the beginning of the experiment were used. A single dose (65 mg/kg, i.p.) of Streptozotocin (STZ) with 230 mg/kg (i.p) of nicotinamide were used for induction of diabetes in rats. The STZ was freshly dissolved in citrate buffer. Age matched control rats received the equal volume of the citrate buffer only. Forty days after injection of either STZ or citrate buffer, the rats were tested for diabetes mellitus (DM) using a drop of blood from the tail vein. The estimation of blood glucose level was made using OneTouch Select® Glucometer (LifeScan, Inc., USA). Rats with plasma glucose level>8 mmol/1 (145 mg/dl) were considered as diabetic. Following the diagnosis of DM, age matched healthy control and STZ-induced diabetic rats were divided randomly into four groups each containing six rats. Glucose level was estimated on weekly basis during the experiment.
(§2) Experimental design and drug treatment: Six weeks after the diabetic induction age matched healthy control and STZ-induced diabetic rats were divided randomly into four groups each containing six rats: naïve rats, vehicle (0.5% methylcellulose) treated DM group, 70 mg/kg (in 0.5% methylcellulose) Compound 5-treated DM group, 140 mg/kg (in 0.5% methylcellulose) Compound 5-treated DM group.

[3] = test system: STZ-induced diabetic rats; assay: STZ-induced diabetic rat model, tactile allodynia (Example 18); format: in vivo, Wistar rats
Description: as §1, §2
Behavioral testing: Tactile allodynia. […] The paw withdrawal thresholds were determined. […] The psychophysical 50% threshold was then calculated.
Data analysis: The results are presented as mean±SEM. In chronic pain experiment, four rats were excluded from the statistical analysis because the paw withdrawal threshold was >8 g (criterion taken from the study. Paw withdrawal threshold data were subjected to analysis of variance (ANOVA, General Linear Model procedure) with Dunnett's post hoc test was applied for between-group pair wise comparisons. Effects of Compound 5 on immunohistochemistry parameters were analyzed by one-way ANOVA (factors: Compound 5 treatment) followed by the Dunnett's test. Data were analyzed using SAS-STAT (SAS v.9.4, SAS Institute Inc., Cary, NC, USA). Data were considered significant at P<0.05.

caspase-3 = assay: Caspase-3 immunohistochemistry (optical density) in spinal cord and sciatic nerve of STZ diabetic rats (Example 18); format: in vivo, Wistar rats
Description: Sections from the biopsy specimens (brain and spinal tissue) were formalin-fixed and paraffin-embedded. For IHC examination, slides from the spinal cord and sciatic nervous were evaluated for caspase-3 (cas-3). Serial 3-5-μm thick sections were cut from paraffin embedded tissue blocks. For subsequent IHC staining glass slices were exposed to hot unmasking fluidized citrate buffer pH 6.0 for 15-18 min. After cooling, the glass with the slice was transferred into phosphate-buffered saline (PBS) pH 7.4. The sections were deparaffinized and then rehydrated in alcohol to tris-buffered saline. Endogenous peroxidase activity was blocked using 3% hydrogen peroxide followed by a protein block with 5% goat serum.
Affinity purified monoclonal IgG1, Caspase-3 p11 antibodies (sc-271759; Santa Cruz BioTechnology Inc., Dallas, TX, USA) were used as the primary antibody and applied at a 1:50 dilution 100 μl/glass for 30 min at room temperature. […]
Immunohistochemistry: Sections from the biopsy specimens were formalin-fixed and paraffin-embedded. For immunohistochemistry (IHC) examination, slides from the spinal cord and sciatic nervous were evaluated for caspase-3. […] (4 per group) and three sections from each animal were used for quantitative immunohistochemistry (12 measuring per each group). […]

Dissociation constant = format: physicochemical
[4] = Solubility testing (Example 27); format: physicochemical; conditions: for solubility in water: as the free acid

| AUC(0-inf) [1] [ng·h/mL] | AUC(0-t) [1] [ng·h/mL] | Cmax [1] [ng/mL] | half-life [1] [min] | dissociation constant (Dissociation constant) | solubility in DMSO, acetone and methanol [4] | solubility in water [4] | Compound | glycosylated hemoglobin (HbA1c) level ([2]; STZ diabetic rats treated during 2 weeks, vs. untreated DM rats) | blood glucose concentration ([2]; STZ diabetic rats, 70 or 140 mg/kg) | tactile allodynia (paw withdrawal threshold), post hoc analysis ([3]; 70 mg/kg, 14 days treatment, p<0.05 vs. vehicle) | tactile allodynia (paw withdrawal threshold) ([3]; 140 mg/kg, 14 days treatment) | threshold of the nociceptive response (tactile allodynia) ([3]; after 14 days of treatment) | expression of caspase-3 in sciatic nerve (caspase-3; both doses (70 and 140 mg/kg), vs. vehicle-treated DM group) | caspase-3 in spinal cord (caspase-3; vs. vehicle group) |
| --- | --- | --- | --- | --- | --- | --- | --- | --- | --- | --- | --- | --- | --- | --- |
| 5150 | 5120 | 1580 | 76.8 | around 3.4 | soluble | poorly soluble | Cc1ccc(C#Cc2ccc(S(=O)(=O)N[C@H](Cc3c[nH]c4ccccc34)C(=O)O)s2)cc1 [Compound 5, (R)-3-(1H-Indol-3-yl)-2-(5-p-tolylethynyl-thiophene-2-sulfonylamino)-propionic acid] | not significantly changed | no significant effects | confirmed the effect | tendency to the analgesic effect | significantly decreased | significant reduction | statistically significant change |
|  |  |  |  | around 3.4 | soluble | poorly soluble | [2H]c1[nH]c2c([2H])c([2H])c([2H])c([2H])c2c1C[C@@H](NS(=O)(=O)c1ccc(C#Cc2ccc(C)cc2)s1)C(=O)O [Compound 82] |  |  |  |  |  |  |  |
